Experimental data reported in article PMC12699179, “Investigating Metal and Fluorophore Controlled Intracellular Localization in Noble Metal Thiosemicarbazone Complexes” (Chemistry (Weinheim an Der Bergstrasse, Germany), 2025).

What was measured:
[1] = Lipophilicity, n-octanol/PBS distribution (logD7.2); format: physicochemical; conditions: n-octanol/PBS distribution at pH 7.2; mean of three measurements ± SD
Description: Having synthesized and assessed the stabilities of the complexes, we moved on to measure their lipophilicities at pH = 7.2 using the n‐octanol/PBS partition coefficient (Table 1).^[ [33], [34] ^] While the complexes were all highly lipophilic, the BODIPY‐conjugated complexes were more lipophilic than their coumarin analogs. In both sets of conjugates, the logD values followed the trend Pd(II) > Pt(II) > Au(III), with the monocationic Au(III) complexes being the least lipophilic.
7. Lipophilicity (logD7.2)
500 mL aliquots of purified octanol and PBS were thoroughly mixed in a 2 L separatory funnel and left overnight to saturate the two phases. For compound sets 5 and 7, 20 μM standard solutions were prepared in PBS-saturated octanol, respectively. 5 mL standard solutions containing the compound in question were then pipetted into 15 mL centrifuge tubes, and a 5 mL aliquot of the octanol-saturated PBS was added. The resulting samples were shaken for 10 min and allowed to rest overnight for 18 hours. The samples were then centrifuged for 30 min (3000 g, 20 °C), and aliquots of the octanol phase were analyzed via UV -Vis spectroscopy.
Experiments were conducted in triplicate. The concentrations of the compounds in the octanol phase were then quantified with respect to their λmax. […]
where A0 = absorbance of 20 μM compound in PBS-saturated octanol

HeLa cells = test: Live-cell confocal microscopy, colocalization with organelle trackers; format: cell-based; conditions: 10 µM, 24 hours, ± standard deviation
Protocol: The subcellular behavior of the compounds was then assessed using a confocal microscope following incubation with HeLa cells (10 µM) for 6 hours and 24 hours, respectively (Figures S56, S57, and 5, 6). Moreover, we performed colocalization experiments with appropriate commercial organelle tracking dyes. As controls, we used the methyl and ethyl esters of 1 and 2, 1‐OMe and 2‐OEt, respectively. […] Moreover, the Pearson Correlation Coefficients (PCC) between 6 and the commercial lysosome tracker (LysoTracker deep red) channel improved over time from 0.63 to 0.81. Additionally, the distribution was distinct from 2‐OEt, corroborating that the Dp44mT scaffold directed the localization of the conjugates. Therefore, attaching BODIPY had no discernible effect on the lysosomal accumulation of Dp44mT.
Figure S55: Excitation (Exc) and emission (Em) spectra of BODIPY conjugates 6 and 7 at 10 µM in water. For (A) 6 and (B) 7a compounds, λex = 502 nm and λem = 519 nm; Slitwidth: […]; Sensitivity: low and medium, respectively. For (C) 7b and (D) 7c, λex = 519 nm and λem = 519 nm; Slitwidth: […]; Sensitivity: medium […]
collected at the appropriate emission wavelengths. […] The corresponding Pearson's Correlation Coefficients (PCCs) were calculated using Fiji (version 1.54f).[7] […]

[2] = Stability in cell culture medium by UV/Vis spectroscopy; format: physicochemical; conditions: 50 µM, DMEM with 10% fetal bovine serum, over 72 hours
Protocol: Likewise, the stability of these complexes was shown via UV/Vis spectrophotometry in cell culture medium over 72 hours.^[ [22] ^] The stability of the newly synthesized compounds was investigated similarly. […] However, the absorption profiles remained distinctly different from those of the corresponding free ligands, which was taken as evidence that the Pd(II) metal center remained chelated by the ligand.
Stability in Cell Culture Medium and Water
5 mM stocks of the respective compounds in DMSO were diluted to produce a final concentration of 50 µM in water or Dulbecco's Modified Eagle's Medium (DMEM) containing 10% fetal bovine serum and 1% penicillin + streptomycin , respectively. The stability of the compounds was monitored via UV/Vis spectroscopy by recording the corresponding absorption profiles of the 50 µM solutions and comparing any changes to the profiles over […]

Q: For `CC1=CC(C)=[N+]2C1=Cc1ccc(CCC(=O)NCCc3cccc(C4=[N+]5N=C(N(C)C)[S][Pt-2]5([Cl])[n+]5ccccc54)n3)n1[B-]2(F)F` (stereo not drawn) [Compound 7b], which “logD 7.2” value [1] is on record?
A: 1.80 ± 0.04

Q: And the “Pearson Correlation Coefficient (PCC) with ER Tracker” value (HeLa cells)?
A: 0.51 ± 0.01

Q: And the “stability in cell culture medium” value [2]?
A: remained stable
